Experimental data from US10006005B2, “Culture medium and method for inducing differentiation of pluripotent stem cells to hepatoblasts” (National University Corporation Chiba University, priority 2014, dated 2018).

Experiments:
[1] = test system: human iPS cell line (201B7); experiment: Optical microscopic observation of survival of cultured human iPS cells; format: cell-based; conditions: reagent added to culture in HSM, observed after 3 days; M50054 at 100 μg/mL
Method: (§1) A human iPS cell line (201B7; Riken Cell Bank) was seeded to a 25-cm^2 flask (manufactured by Asahi Glass Co., Ltd.), a 6-well plate (manufactured by Asahi Glass Co., Ltd.), or a 96-well flat-bottomed plate (manufactured by Asahi Glass Co., Ltd.), which is coated with Matrigel, and was cultured in a 5% CO2 incubator at 37° C. The coating with Matrigel was performed by: adding a solution prepared by adding 8.7 ml of Dalbecco's Modified Eagle's Medium/Nutrient F-12 Ham (manufactured by Sigma) to 0.3 ml of Matrigel™ (manufactured by Becton Dickinson) to a 25-cm^2 flask, a 6-well plate, and a 96-well flat-bottomed plate, in amounts of 1 ml, 0.5 ml, and 20 μl, respectively; and leaving the whole to stand still at room temperature for 30 minutes. ReproFF (manufactured by ReproCELL Incorporated) was used as a cell culture medium. ReproFF is a culture medium for culturing primate ES cells or human IFS cells while maintaining the pluripotency. The cells were passaged by culture using a 25-cm^2 flask. The cells were dispersed as described below. After the aspiration of the medium, the 25-cm^2 flask was rinsed with 1 ml of physiological saline per flask. After the aspiration of the saline, 0.5 ml of Accutase (manufactured by Innovative Cell Technologies) was added and the cells were incubated in an incubator for 5 minutes. 0.5 ml of ReproFF was added, and the cells were harvested. Then, the cells were centrifuged at 1,000 rpm for 3 minutes. The supernatant was removed by aspiration, and then the precipitated cells were used by being suspended in ReproFF.
An optical microscope CKX41N-31PHP (manufactured by Olympus Corporation) was used for an optical microscopic observation of cells. […]
Further, RNA was extracted and the expression levels of various genes were analyzed by real-time quantitative PCR. […]
The resultant cells were observed under an optical microscope. In addition, the expression level of AFP in the resultant cells was measured.

AFP gene = AFP gene expression in cultured iPS cells by real-time quantitative PCR; format: cell-based, human; conditions: for expression level of AFP gene: 2 days in HSM plus compound alone (10 μM)
Method: as §1
A medium used in a search study on various growth factors (hereinafter abbreviated as iPSm[-]) was prepared by adding 20% Knockout™ Serum Replacement (hereinafter abbreviated as KSR; manufactured by Life Technologies), Minimum Essential Amino Acids (manufactured by Life Technologies), 2 mM L-glutamine (manufactured by Life Technologies), and 1 mM 2-mercaptoethanol (manufactured by Sigma-Aldrich) to Dulbecco's […]-F12 (manufactured by Sigma-Aldrich) (Takahashi, K. et al., “Induction of Pluripotent Stem Cells from Adult Human Fibroblasts by Defined Factors,” Cell, 2007, Vol. 131, No. 5, p. 861-872).
Cell differentiation was confirmed by measuring an expression gene by real-time quantitative PCR. RNA was extracted by using Isogen (manufactured by NIPPON GENE) according to the manufacturer's instructions. 5 μg of total RNA was synthesized by using Superscript3 first-strand synthesis system for PCR (manufactured by Life Technologies) and an oligo dT primer according to the manufacturer's instructions. Real-time quantitative PCR was performed using 4 ng of synthesized cDNA per sample. PCR was performed as follows: PCR were 40 cycles of denaturation for 5 seconds and annealing-extension for 5 seconds. SYBR Green Master Mix (manufactured by Life Technologies) was used for the reaction. Mini Opticon system (manufactured by Bio-Rad) was used for detection in real-time PCR. The expression level of each gene was calculated as an average value of data obtained from three wells. Ribosomal protein L (RPL)-19 was used as an internal control and the expression level of each gene was represented as a relative expression level to the expression level of RPL-19.
First, iPS cells were cultured in HSM to confirm differentiation of the iPS cells to hepatocytes. Specifically, iPS cells were cultured in HSM for 2 days, and then gene expression in the cells was measured by real-time quantitative PCR. Thus, the induction of differentiation of iPS cells to hepatocytes was detected. ReproFF was used as a control medium and similar investigations were performed.
In this Example, the addition of NEAA and sodium pyruvate (1 mM) to HSM was investigated for the purpose of enhancing the survival of iPS cells. Specifically, iPS cells were cultured for 2 days in a medium prepared by adding NEAA and sodium pyruvate (1 mM) to HSM, and the expression of AFP gene was measured by real-time quantitative PCR. […]

[2] = test system: human iPS cell line (201B7); experiment: Cell proliferation assay (MTS assay) of surviving iPS cells; format: cell-based
Method: A human iPS cell line (201B7, Riken Cell Bank) was seeded to a 96-well flat-bottomed plate coated with Matrigel at 1,000 cells/50 μl per well. After 48 hours of culture, 3-(4,5-dimethylthiazol-2-yl)-5-(3-carboxymethoxyphenyl)-2-(4-sulfophenyl)-2H-tetrazolium inner salt (MTS; manufactured by Promega) was added at 5 μl per well, and the cells were incubated in an incubator for 2 hours. After that, cell proliferation was verified by measuring an absorbance at a wavelength of 490 nm with iMark™ Microplate Absorbance Reader (manufactured by Bio-Rad).
In view of the foregoing, MTS assay was performed 48 hours after the addition of M50054.

[3] = 1 week in iPSm(-) supplemented with growth factor
[4] = 48 hours in HSM supplemented with the factor alone

O=C(O)c1ccc(Cl)c(S(=O)(=O)Nc2cccc([N+](=O)[O-])c2)c1 [CTP inhibitor, 4-chloro-3-[[(3-nitrophenyl)amino]sulfonyl]-benzoic acid]
survival of iPS cells observed with an optical microscope [1]: died

O=C1OC(C=Cc2ccccc2)=N/C1=C\c1cccnc1 [DAPK inhibitor, (4Z)-4-(3-pyridylmethylene)-2-styryl-oxazol-5-one]
survival of iPS cells observed with an optical microscope [1]: died

CC(=O)Nc1ccc(Cc2ccc(NC(C)=O)cc2)cc1 [FH1, N,N′-(methylenebis(4,1-phenylene))diacetamide]
expression level of AFP gene (AFP gene): did not exhibit such effect

Cc1ccc(Cl)cc1N(CC(=O)Nc1c(F)cccc1F)S(C)(=O)=O [FPH1, 2-(N-(5-chloro-2-methylphenyl)methylsulfonamido)-N-(2,6-difluorophenyl)acetamide]
expression level of AFP gene (AFP gene): increased

O=C1CCCC(=O)C1CC1C(=O)CCCC1=O [M50054, 2,2′-methylenebis(1,3-cyclohexanedione)]
survival of iPS cells observed with an optical microscope [1]: some of the iPS cells survived | MTS assay value, one-way analysis of variance ([2]; 100 μg/mL compared to 0 μg/mL and 1,000 μg/mL, P<0.05): significantly high value | cell toxicity (MTS assay) ([2]; 1,000 μg/mL): showed cell toxicity | absorbance in MTS assay (surviving cells) ([2]; 48 hours after addition of M50054, 100 g/mL as printed): maximum absorbance | expression of AFP gene (AFP gene; 48 hours in HSM plus M50054 at […] as printed): upregulated

HGF: hepatocyte growth factor, commercially available from Wako Pure Chemical Industries
expression of AFP gene (AFP gene; [3]): upregulating effect

B1: oncostatin M: cytokine of the IL-6 family (protein, UniProt P13725 26-221, looked up)
Oncostatin-M: AAIGSCSKEYRVLLGQLQKQTDLMQDTSRLLDPYIRIQGLDVPKLREHCRERPGAFPSEETLRGLGRRGFLQTLNATLGCVLHRLADLEQRLPKAQDLERSGLNIEDLEKLQMARPNILGLRNNIYCMAQLLDNSDTAEPTKAGRGASQPPTPTPASDAFQRKLEGCRFLHGYHRFMHSVGRVFSKWGESPNRSRR
expression of AFP gene (AFP gene; [3]): upregulating effect | expression of AFP gene, compared to HGF (AFP gene; [4]): high upregulating effect | expression of AFP gene, compared to fetal liver (AFP gene; [4]): more upregulated than the expression of the gene in fetal liver
